Experimental findings from US20260265222A1, “1H-PYRROLE-2-AMIDE DERIVATIVE, PHARMACEUTICAL COMPOSITION AND METHOD FOR TREATING AND/OR PREVENTING YTHDC1-RELATED DISEASES” (priority 2023, published 2026) are described below.

Experiment [1] deals with T1, GST-YTHDC1 (345-509) protein (Homo sapiens, UniProt Q96MU7).
T1 construct: GST-YTHDC1 (345-509) protein
The experiment is described as follows: Fluorescence polarization-based in vitro enzyme-level test against YTHDC1. Format: binding. The note with it: 30 nM GST-YTHDC1 (345-509), FAM-labeled m6A-modified single-stranded oligonucleotide, 18° C., 4 hours; read-out: IC50 (Inhibitory Activity against YTHDC1).

Experiment [2] concerns leukaemia cells MOLM-13, MV4-11, THP-1, and U937. The experiment in a line: Apoptosis detection by flow cytometry (APC-Annexin V, 7-AAD). The settings on record: MOLM-13, MV4-11, THP-1, U937; 0.5-2 μM, 5 days (FIG. 1d). Format: cell-based. As to the method:
To detect the effect of the small molecule YL-5092 on the apoptosis of leukaemia cells MOLM-13, MV4-11, THP-1, and U937, MOLM-13, MV4-11, THP-1, and U937 cells were evenly seeded in 12-well plates and treated them with different concentration gradients of YL-5092 (0.5-2 μM) for 5 days. After collection, the cells were washed twice with ice-cold PBS, and 5 μL of APC-Annexin V antibody and 5 μL of 7-AAD were added for incubation for 15-30 min, protected from light, and finally analyzed on the flow cytometer.
A general note: Flow cytometry measures light scatter and fluorescence of single cells or particles in a stream.

The test system of experiment [3] is AML cells (MV4-11, HL-60, MOLM-13, THP-1, KG-1, U937, OCI-AML3). The experiment is described as follows: Detection of cell proliferation by MTT assay. The note with it: 72 h, range over the cell lines (FIG. 1a), read-out: IC50 values, inhibition of proliferation of AML cells. Format: cell-based. How it is done:
AML cells (MV4-11, HL-60, MOLM-13, THP-1, KG-1, U937, and OCI-AML3) were seeded in 96-well plates at 10,000-15,000 cells per well, and then a series of concentration gradients of YL-5092 (i.e., Compound 29) were added for culture for 72 h. 20 μL of MTT solution ([…]) was added to each well and incubated for 2-4 hours, followed by the addition of 50 μL of 20% SDS solution and incubation overnight to dissolve the formazan. The absorbance value was then read at 570 nm on a microplate reader, and the IC50 value of YL-5092 was calculated using GraphPad Prism 8.0.

In experiment [4] the test system is leukaemia cell MOLM-13. The experiment in a line: Differentiation detection by flow cytometry (PE-CD11b, APC-CD14). It counts as cell-based. The note with it: MOLM-13, 0.5-2 μM, 5 days (FIG. 1c). As to the method:
To detect the effect of the small molecule YL-5092 on the differentiation of leukaemia cell MOLM-13, MOLM-13 cells were evenly seeded in 12-well plates and treated them with different concentration gradients of YL-5092 (0.5-2 μM) for 5 days. After collection, the cells were washed twice with ice-cold PBS, and 2 μL of PE-CD11b antibody and 2 μL of APC-CD14 antibody were added for incubation for 30 min, protected from light, then washed twice with ice-cold PBS, and finally analyzed on the flow cytometer.

Experiment [5] relates to leukaemia cell MOLM-13. The experiment in a line: Cell cycle detection by flow cytometry (PI). Format: cell-based. The settings on record: MOLM-13, 0.5-2 μM, 48 h (FIG. 1b). How it is done: To detect the effect of the small molecule YL-5092 on the cell cycle of leukaemia cell MOLM-13, MOLM-13 cells were evenly seeded in 12-well plates and treated with different concentration gradients of YL-5092 (0.5-2 μM) for 48 h. After collection, the cells were washed once with ice-cold PBS and fixed with 70% ice-cold ethanol for 12 h. Before analysis on the flow cytometer, the cells were washed twice with ice-cold PBS and then incubated with PI reagent for 30 min, protected from light.

SMILES strings stand for the structures.

Regarding `O=C(Nc1ccc(-c2cncs2)cc1)c1cc(C(=O)c2ccccc2C(F)(F)F)c[nH]1` [Compound 29], the IC50 was 7 nM in experiment [1] and 280 to 2870 nM in experiment [3]. In addition, in experiment [2], the AML cell apoptosis result is given as “apoptosis”. Also, the AML cell differentiation result in the experiment with leukaemia cell MOLM-13 [4] is recorded as “induce AML cell differentiation”. The “AML cell cycle arrest” value in the experiment with leukaemia cell MOLM-13 [5] is recorded as “significantly induce AML cell cycle arrest in the G0/G1 phase”. Turning to `CS(=O)(=O)c1ccccc1-c1nccc2[nH]c(C(=O)Nc3ccc(-c4ccccc4)cc3)cc12` [Compound 72], the IC50 in experiment [1] was determined as 36500 nM.

As to `CS(=O)(=O)c1ccccc1-c1cccc2[nH]c(C(=O)Nc3ccc(-c4cncs4)cc3)cc12` [Compound 69], the IC50 in experiment [1] is 373 nM.

As for `O=C(Nc1ccc(-c2cnc(N3CCN(C4COC4)CC3)o2)cc1)c1cc(C(=O)c2ccccc2Br)c[nH]1` [Compound 85], the IC50 in experiment [1] was determined as 234 nM. `O=C(Nc1ccc(-c2cnc(N3CCN(CCO)CC3)o2)cc1)c1cc(C(=O)c2ccccc2Br)c[nH]1` [Compound 86]: in experiment [1], the IC50 was 847 nM. On to `CC(C)(C)c1ccccc1C(=O)c1c[nH]c(C(=O)Nc2cccnc2)c1` [Compound 10], for which the IC50 in experiment [1] came to 2010 nM. For the compound `CN(C)c1ccccc1-c1ccc(NC(=O)c2cc(C(=O)c3ccccc3C(F)(F)F)c[nH]2)cc1` [Compound 110], in experiment [1], the IC50 was determined as 413 nM.

`COc1ccc(CNc2ccccc2C(=O)c2c[nH]c(C(=O)Nc3ccc(-c4cnco4)cc3)c2)cc1` [Compound 130]: the IC50 in experiment [1] is at least 50000 nM. Same read-out and setting: with `O=C(Nc1ccc(C(=O)N2CCC3(CC2)OCc2ccccc23)cc1)c1cc(C(=O)c2ccccc2C(F)(F)F)c[nH]1` [Compound 120] the figure was at least 50000 nM; with `CN(C)CCOc1cc(NC(=O)c2cc(C(=O)c3ccccc3C(F)(F)F)c[nH]2)ccc1-c1cnco1` [Compound 101], 43 nM. Take `CC(C)(C)OC(=O)N1CCc2cc(-c3ccc(NC(=O)c4cc(C(=O)c5ccccc5C(F)(F)F)c[nH]4)cc3)ccc21` [Compound 124]: the IC50 in experiment [1] is at least 50000 nM. On the same count and under the same terms, with `CCN(C)c1ncc(-c2ccc(NC(=O)c3cc(C(=O)c4ccccc4C(F)(F)F)c[nH]3)cc2)o1` [Compound 103] the figure was 14 nM; with `O=C(Nc1ccc(-c2cnco2)cc1)c1cc(C(=O)c2ccccc2C(F)(F)F)c[nH]1` [Compound 105], 9.7 nM; with `CC(=O)c1ccc(NC(=O)c2cc(C(=O)c3ccccc3C(F)(F)F)c[nH]2)cc1` [Compound 19], 31 nM. For `O=C(Nc1ccc(-c2cncnc2)cc1)c1cc(C(=O)c2ccccc2C(F)(F)F)c[nH]1` [Compound 102], the IC50 in experiment [1] is 86 nM. Same read-out and setting: for `CCN(C)c1ccccc1C(=O)c1c[nH]c(C(=O)Nc2ccc(-c3cnco3)cc2)c1` [Compound 127] the value was 13 nM; for `CC(=O)c1ccccc1-c1nccc2[nH]c(C(=O)Nc3ccc(-c4cncs4)cc3)cc12` [Compound 51], above 50000 nM; for `O=C(Nc1ccc(-c2cnc(N3CCNCC3)o2)cc1)c1cc(C(=O)c2ccccc2C(F)(F)F)c[nH]1` [Compound 81], 61 nM. The same measure, in the same setting: for `COc1ccccc1C(=O)c1c[nH]c(C(=O)Nc2cccnc2)c1` [Compound 9] the value was 10600 nM; for `CS(=O)(=O)c1ccccc1-c1nccc2[nH]c(C(=O)Nc3ccc(-c4ccncc4)cc3)cc12` [Compound 73], 6270 nM. As for `O=C(Nc1ccc(-c2cncs2)cc1)c1cc2c(-c3ccncc3C(F)(F)F)nccc2[nH]1` [Compound 49], in experiment [1], the IC50 was above 50000 nM. On to `O=C(Nc1ccc(-c2ocnc2CO)cc1)c1cc(C(=O)c2ccccc2C(F)(F)F)c[nH]1` [Compound 94], for which the IC50 in experiment [1] is 113 nM.

For the compound `CN(C)c1ncc(-c2ccc(NC(=O)c3cc(C(=O)c4ccccc4C(F)(F)F)c[nH]3)cc2)o1` [Compound 75], in experiment [1], the IC50 was determined as 8.5 nM. The same measure, in the same setting: with `O=C(Nc1ccc(-c2cnco2)cc1)c1cc(C(=O)c2ccccc2C(F)(F)F)c[nH]1` [Compound 28] the figure was 10 nM. Same read-out and setting: for `O=C(Nc1ccc(-c2cncs2)cc1)c1cc2c(-c3ccccc3C(F)(F)F)nccc2[nH]1` [Compound 41] the value was 192 nM; for `COc1cc(NC(=O)c2cc(C(=O)c3ccccc3C(F)(F)F)c[nH]2)ccc1-c1cnco1` [Compound 90], 3.7 nM. Take `O=C(Nc1ccc(-c2cnco2)cc1)c1cc(C(=O)c2ccccc2N2CCOC2=O)c[nH]1` [Compound 136]: the IC50 in experiment [1] was found to be 28 nM. On to `CCSc1ccccc1-c1nccc2[nH]c(C(=O)Nc3ccc(-c4cncs4)cc3)cc12` [Compound 68], for which, in experiment [1], the IC50 is 1670 nM.

`O=C(Nc1cccc(C(F)(F)F)c1)c1cc(C(=O)c2ccccc2C(F)(F)F)c[nH]1` [Compound 115]: the IC50 in experiment [1] is 2640 nM. `CC(C)(C)NS(=O)(=O)c1ccccc1-c1nccc2[nH]c(C(=O)Nc3ccc(-c4cncs4)cc3)cc12` [Compound 57]: the IC50 in experiment [1] was above 50000 nM.

Consider `O=C(Nc1ccc(-c2cccnc2)cc1)c1cc(C(=O)c2ccccc2C(F)(F)F)c[nH]1` [Compound 23], for which the IC50 in experiment [1] stood at 47 nM. The same measure, in the same setting: for `O=C(Nc1ccc(-c2cnco2)cc1)c1cc(C(=O)c2ccccc2-c2ccccc2)c[nH]1` [Compound 152] the value was 14 nM; for `CN1CCN(c2ccccc2C(=O)c2c[nH]c(C(=O)Nc3ccc(-c4cnco4)cc3)c2)CC1` [Compound 139], 1050 nM; for `O=C(Nc1cccc(F)c1)c1cc(C(=O)c2ccccc2C(F)(F)F)c[nH]1` [Compound 14], 248 nM. Regarding `O=C(Nc1ccc(-c2cnco2)cc1)c1cc(C(=O)c2ccccc2N2CC3CCC2CO3)c[nH]1` (stereo not drawn) [Compound 134], in experiment [1], the IC50 stood at 99 nM.
